# Measured values published in patent publication US20240000820A1, “A METHOD OF TREATING FOOT ROT” (Intervet Inc., priority 2020, published 2024).
# How the values were obtained:
# [1] = Health observations and adverse events in the foot rot study; type: in vivo, bovine animals
# Protocol: (§1) Thirty animals were enrolled to the Control Group and another thirty animals were enrolled in the Tildipirosin treated Group. The tildipirosin-treated group received a single dose, subcutaneously, while the control group was treated with a saline sterile solution. Both groups (treated and control) were housed in the same paddocks under typical Brazilian feedlot conditions.
# [2] = tested on: Fusobacterium necrophorum; assay: Bacterial evaluation of hoof lesion samples (culture, biochemical tests and PCR) before treatment and on Day 7; type: in vivo; details: Day 0 vs Day 7, in comparison to the control group
# Protocol: On Day 0, before treatment, bacteriological samples were collected from the infected hooves of the enrolled cattle. Lesions and lameness were also assessed on Days 2, 4 and 7. Treatment success, improvement, or failure was determined on Day 7 and was based on lameness and lesion score compared to Day 0. On Day 7, another bacteriological sample was collected from all animals. Bacteriological samples were collected on a sterile scraper and on a sterile swab from the border of healthy and necrotic tissue (around the hoof lesion) of the infected hooves of the enrolled cattle. The tip of the scraper, containing discharge from the lesions, was fractured off into 15 ml tubes containing 7 ml of a semi solid transport media formulated exclusively to anaerobic bacteria and the swab was discharged in a semi solid transport. The tubes were kept under refrigeration (4 to 8° C.) until they arrive into the laboratory. At the laboratory, the samples grew in culture media appropriated to F. necrophorum and Dichelobacter nodosus isolation. Isolates were identified using confirmatory biochemical tests and polymerase chain reaction (PCR) specific to F. necrophorum and D. nodosus species.
# [3] = tested on: naturally occurring foot rot; assay: Efficacy of a single subcutaneous dose against naturally occurring foot rot in feedlot cattle (lameness and lesion scoring); type: in vivo, bovine animals; details: for average lameness score: score guide 1-5 (Table 1); for average lesion score: score guide 1-5 (Table 2)
# Protocol: as §1
# Sixty animals were included in the trial in two different phases, according to the number of available animals that fulfill the inclusion criteria. The study was masked. […] The animals were randomized and evenly distributed across the treatment groups according to 15 blocks of 2 animals each in both inclusion dates (there were 2 inclusion dates, for a total of 60 animals).
# The effectiveness of tildipirosin for the treatment of foot rot was evaluated by comparing the proportion of treatment success/improvement in the tildipirosin-treated group to the saline-treated control group on Day 7.
# The lameness and the lesion scoring are described in Tables 1 and 2 below.
# The animals' lesion and lameness score were assessed by the investigator on Days −1 and 0 of the study. To qualify for the effectiveness portion of the study, animals were diagnosed with foot rot by meeting the following criteria: • Lameness Score 3 in at least one foot for 2 consecutive days. • Lesion Score 2 in at least one foot for 2 consecutive days. • Clinically healthy (excepting lameness) • Body weight (348-499 kg body weight) • Age (20-24 months)
# On Day 0, before treatment, bacteriological samples were collected from the infected hooves of the enrolled cattle. Lesions and lameness were also assessed on Days 2, 4 and 7. Treatment success, improvement, or failure was determined on Day 7 and was based on lameness and lesion score compared to Day 0. On Day 7, another bacteriological sample was collected from all animals.
# [4] = Day 0, before treatment, treated group
# [5] = Day 7 after single subcutaneous dose of 4 mg/kg BW
smiles,measurement,setting,value
"CC[C@H]1OC(=O)C[C@@H](O)[C@H](C)[C@@H](O[C@@H]2O[C@H](C)[C@@H](O)[C@H](N(C)C)[C@H]2O)[C@@H](CCN2CCCCC2)C[C@@H](C)C(=O)/C=C/C(C)=C/[C@@H]1CN1CCCCC1 [tildipirosin, (4R,5S,6S,7R,9R,11E,13E,15R,16R)-6-[(2R,3R,4S,5S,6R)-4-(dimethylamino)-3,5-dihydroxy-6-methyloxan-2-yl]oxy-16-ethyl-4-hydroxy-5,9,13-trimethyl-7-(2-piperidin-1-ylethyl)-15-(piperidin-1-ylmethyl)-1-oxacyclohexadeca-11,13-diene-2,10-dione]",abnormal health observations,"[1]; before or after treatment, single subcutaneous dose 4 mg/kg BW",no abnormal health observations
same,"adverse event (broken toenail on Day 7, one animal), relation to treatment","[1]; tildipirosin-treated group, according to the investigator",not related to the tildipirosin treatment
same,bacterial evaluation (PCR identification of Fusobacterium necrophorum before vs after treatment),[2],not conclusive
same,average lameness score,[3]; [4],3.1
same,average lesion score,[3]; [4],2.3
same,average lameness score,[3]; [5],1.3
same,average lesion score,[3]; [5],1.9
same,treatment of naturally occurring foot rot,[3]; single subcutaneous dose of 4 mg of tildipirosin per kg BW,effectively treat
